Source: patent publication US10308938B2, “Compositions and methods to activate or inhibit toll-like receptor signaling” (priority 2014, dated 2019)
Entries after “also recorded” stand apart in the source; their conditions may differ.

Assays:
CD4^+ T cells [1] = test: Cytokine secretion by stimulated CD4+ T cells, ELISA; format: cell-based, human; settings: day 3 after stimulation
Description: (§1) Cell activation and intracellular staining.
(§2) Enzyme-linked immunosorbent assay.

CD4^+ T cells [2] = test: Cytokine gene expression in stimulated CD4+ T cells, TaqMan real-time PCR; format: cell-based, human; settings: 12 hours after activation
Description: (§3) Quantification of mRNA expression levels by RT-PCR. RNA was isolated using QIAGEN RNeasy Micro Plus Kit (QIAGEN, Valencia, Calif.), following manufacturer's guidelines and converted to cDNA by reverse transcription (RT) with random hexamers and Multiscribe RT (TQMN, Reverse Transcription Reagents; Applied Biosystems, Foster City, Calif.). For mRNA gene expression assays, probes were purchased from Applied Biosystems (Table 2) and the reactions were set up following manufacturer's guidelines and run on a StepOne Real-Time PCR System (Applied Biosystems). Values are represented as the difference in Ct values normalized to β2-microglobulin for each sample as per the following formula: Relative RNA expression=(2^−dCt)×1000.

CD14^+ monocytes = test: Activation of CD14+ monocytes (surface staining, cytokine ELISA); format: cell-based, human
Description: Cell isolation and FACS sorting of T cell populations. Peripheral blood mononuclear cells (PBMC) were isolated from healthy donors by Ficoll Hypaque gradient centrifugation. Total CD4^+ T cells were isolated by negative selection using CD4^+ T cell isolation kit (StemCell Technologies, Vancouver, BC) and stained for fluorescence-activated cell sorting (FACS) with the following antibodies: anti-CD45RO (clone UCHL1), CD45RA (clone H1100), CD25 (clone M-A251) (all from BD Biosciences) and CD127 (clone eBioRDR5) from eBioscience (San Diego, Calif.). The Treg (CD4^+CD25^hiCD127^low/neg) memory T cell (CD4^+CD45RA^−CD45RO^+CD25^low/neg+) and naïve T cell (CD4^+CD45RA^+CD45RO^−CD25^low/neg) populations were sorted on a FACS Aria (BD Biosciences). Unless specified, CD4^+ T cells used in the experiments were Treg-depleted CD4^+ T cells and they were sorted as CD4^+CD25^pos/lowCD127^+. The purity of the sorted CD4^+ T cell population was >98% as assessed by CD3 and CD4 staining after sort. CD14^+ cells were isolated by positive selection using EasySep™ Human CD14 Positive Selection Kit (StemCell Technologies).
as §1, §2

CD4^+ T cells [3] = test: shRNA-transduced CD4+ T cells stimulated in the presence or absence of IMQ; format: cell-based, human
Description: as §2, §3
Gene silencing by lentiviral transduction. Lentiviral particles encoding shRNAs were obtained from Sigma-Aldrich (NFAT1 clone TRCN0000016144, TLR7 clones 3 and 4 TRCN0000056973 and TRCN0000056974, respectively). 5×10^4 CD4^+ T cells per well were stimulated with plate-bound anti-CD3 (1 μg/ml) and soluble anti-CD28 (1 μg/ml) for 12 h before transduction. Cells were then transduced with viral particles containing a vector expressing the indicated specific shRNA (NFAT1 or TLR7) or a non-target shRNA as a control at a multiplicity of infection of 4. All constructions contained the coding sequence for GFP. After 5 days in culture, transduced cells were sorted based on GFP expression and the efficiency of gene silencing was determined by TaqMan real-time PCR and protein staining.

CD4^+ T cells [4] = test: Intracellular calcium measurement (INDO-1AM); format: cell-based, human
Description: Intracellular calcium measurements. Ex vivo isolated CD4^+ T cells were labeled with 5 μM INDO-1AM for one hour at 37° C. in PBS, 1 mM Ca^2+. Cells were washed to remove traces of INDO-1AM, resuspended in buffer at 10^6 cells/ml and incubated for 30 minutes at 37° C. before analysis. When necessary, IRS661 was added at the indicated concentration during the 30 minute incubation. For acquisition, the sample was acquired for approximately 3 minutes to obtain basal levels of calcium and subsequently IMQ or other reagents were added at the indicated concentrations. Samples were acquired for a minimum of 10 minutes on a BD Fortessa instrument and analysed with FlowJo software.

HIV-1NL-D = test: HIV-1 in vitro infection of CD4+ T cells; format: cell-based; settings: treatment before infection, MOI 0.001
Description: Preparation of HIV-1 virus stocks. HIV-1 proviral DsRed-tagged DNA pNL-D (derived from the prototype HIV-1 proviral DNA pNL432) was kindly provided by Dr. Yasuko Tsunetsugu-Yokota. 293T cells were used to prepare viral stocks following published protocols with minor modifications. In brief, 293T cells were plated at 0.5×10^6/well in 12-well plates and transfected with 2 μg pNL-D using Lipofectamine 2000 (Invitrogen) for 48 hours. Culture supernatant was treated with benzonase (1U/ml) for 30 minutes at 37 C, cleared by filtration and titrated on 293T cells. Stocks were stored at −80 C.
HIV-1 in vitro infection. CD4^+ T cells were stimulated with anti-CD3 (1 μg/ml) and anti-CD28 (1 μg/ml) for 48 hours and subsequently infected with HIV-1 at a MOI of 0.001 (concentration within the physiological range). Viability and cytokine secretion was measured every 48 hours for a total of 11 days after infection.
For HIV-1 infection on TLR7-deficient cells, CD4^+ T cells were stimulated as above and transduced with the corresponding lentiviral particles. 48 hours after transduction, the cells were infected with HIV-1NL-D at a MOI of 0.001. Viability and frequency of HIV-1-infected cells were measured at different time points by LIVE/DEAD cell dye staining and fixation with 1% PFA (to avoid DsRed signal loss). For intracellular staining after infection, the cells were restimulated with PMA and Ionomycin in the presence of GolgiStop for 4 hours and the staining was performed as recommended by Grupillo et al.

[5] = NFAT shRNA-transduced cells, 3 days
[6] = TLR7 shRNA-transduced cells, 3 days
[7] = non-target shRNA-transduced cells, 3 days, listed as IMQ

How did the IFNγ secretion (CD4^+ T cells [1]) turn out when CC(C)Cn1cnc2c(N)nc3ccccc3c21 [Imiquimod] was run?
The IFNγ secretion was “dramatically reduced”.

What about the IL-2 secretion (CD4^+ T cells [1]) of the same molecule?
Its IL-2 secretion is “decrease”.

And the IL-4 secretion (CD4^+ T cells [1])?
Its IL-4 secretion is “decrease”.

And the IL-17 secretion (CD4^+ T cells [1])?
The IL-17 secretion was “dramatically reduced”.

And the IFNγ secretion (CD4^+ T cells [1]; listed as IMQ)?
The IFNγ secretion was “decrease”.

What about the IL-17 secretion (CD4^+ T cells [1]; listed as IMQ) of the same molecule?
The IL-17 secretion was “decrease”.

What about the “induction of IFNγ gene expression” value (CD4^+ T cells [2]) of the same molecule?
The value was “significant decrease”.

And the “induction of IL-2 gene expression” value (CD4^+ T cells [2])?
Its value is “significant decrease”.

And the “induction of IL-4 gene expression” value (CD4^+ T cells [2])?
The value was “significant decrease”.

What about the CD25 protein expression (CD14^+ monocytes; 5 μg/ml IMQ, 24 hours) of the same molecule?
The CD25 protein expression was “upregulation”.

What about the CD80 protein expression (CD14^+ monocytes; 5 μg/ml IMQ, 24 hours) of the same molecule?
The CD80 protein expression was “upregulation”.

And the CD86 protein expression (CD14^+ monocytes; 5 μg/ml IMQ, 24 hours)?
The CD86 protein expression was “downregulation”.

What about the HLA-DR protein expression (CD14^+ monocytes; 5 μg/ml IMQ, 24 hours) of the same molecule?
The HLA-DR protein expression was “upregulation”.

What about the IL-6 secretion (CD14^+ monocytes; ELISA) of the same molecule?
The IL-6 secretion was “secreted significant levels”.

What about the IL-10 secretion (CD14^+ monocytes; ELISA) of the same molecule?
Its IL-10 secretion is “decreased”.

And the IL-113 secretion (CD14^+ monocytes; ELISA)?
Its IL-113 secretion is “secreted significant levels”.

And the TNFα secretion (CD14^+ monocytes; ELISA)?
Its TNFα secretion is “secreted significant levels”.

And the NFAT1 gene expression (CD4^+ T cells [3]; 24 hours after stimulation)?
The NFAT1 gene expression was “did not have an effect”.

What about the IFNγ production (CD4^+ T cells [3]; [5]) of the same molecule?
Its IFNγ production is “not affected”.

What about the IL-2 production (CD4^+ T cells [3]; [5]) of the same molecule?
The IL-2 production was “not affected”.

What about the “IMQ-induced decrease of IFNγ secretion” value (CD4^+ T cells [3]; [6]) of the same molecule?
The value was “abolished”.

What about the “IMQ-induced decrease of IL-2 secretion” value (CD4^+ T cells [3]; [6]) of the same molecule?
Its value is “abolished”.

And the IFNγ secretion (CD4^+ T cells [3]; [7])?
The IFNγ secretion was “decrease; also recorded: significantly reduced”.

And the IL-2 secretion (CD4^+ T cells [3]; [7])?
Its IL-2 secretion is “decrease; also recorded: significantly reduced”.

And the “duration of the increase in intracellular calcium concentration” value (CD4^+ T cells [4])?
The value was “at least 20 minutes”.

What about the intracellular calcium concentration (CD4^+ T cells [4]; INDO-1AM ratio over time) of the same molecule?
The intracellular calcium concentration was “significant and sustained (maintained for at least 20 minutes, FIGS. 23A and 23B) increase”.

What about the “frequency of HIV-1-infected CD4+ T cells” value (HIV-1NL-D) of the same molecule?
The value was “directly correlated with the concentration of IMQ used”.
